Like-named read-outs stand apart in the source and are kept apart here. Residues, ends and D or L forms follow the SMILES beside them.
Assays:
[1] = target: T1, HLA A*0201 on CEM.T2 cell line (Homo sapiens, UniProt P04439, D140Y/D185E/D98H/E176V/E277Q/G131W/G231S/I119V/I121R/I166T/I218V/L300P/L318F/N151K/N90K/P208A/P217A/Q86G/Q94H/R138H/R169H/T345S); experiment: Cellular dissociation assay on CEM.T2 cells; type: cell-based; details: after Brefeldin A 1 h and 3 h in serum-free RPMI at 37° C. (4 h)
T1 construct: This cell line expresses HLA A*0201 but is deficient for TAP transporter; endogenous in cells; host or cells: CEM.T2 (T2) cell line
Experimental: Cellular Dissociation Assay
After HLA-A2*0201 stabilization with peptides at 37° C. for 4 h, T2 cells were incubated for 1 h, in serum-free RPMI containing Brefeldin A (10 μg/ml), an inhibitor of the transport of secretory and lysosomal proteins [G. J. Strous et al., 1993]. After 3 washes, T2 cells were incubated for 3 h in serum-free RPMI at 37° C. Binding was then measured by FACS and after 4 h incubation. Percentage of Residual Binding (% RB) was calculated as follows: […]

[2] = target: T2, HLA-A*0201 (Homo sapiens, UniProt P04439, D140Y/D185E/D98H/E176V/E277Q/G131W/G231S/I119V/I121R/I166T/I218V/L300P/L318F/N151K/N90K/P208A/P217A/Q86G/Q94H/R138H/R169H/T345S); experiment: biochemical; type: binding
[3] = target: T1, HLA A*0201 on CEM.T2 cell line; experiment: Cellular binding assay, HLA stabilization on CEM.T2 cells; type: cell-based; details: for CEM.T2 % Binding: 100 μM peptide, 37° C. for 4 h, FACS anti HLA-A2, relative to HBV positive control peptide
Experimental: The CEM.T2 cell line (T2) is defective in the processing of proteins for presentation by MHC class 1 molecules. This cell line expresses HLA A*0201 but is deficient for TAP transporter. T2 is classically used to assess the Peptide/HLA-A*0201 Complex Stability[H. W. Nijman et al., 1993]
For HLA-A2*0201 stabilization, T2 cells (2×10^5/well) were incubated in serum-free RPMI (Gibco®-France) with 100 μM of selected peptide, at 37° C. for 4 h. Cells were washed two times with PBS supplemented with 1% BSA and stained with fluorescein isothiocyanate-conjugated anti HLA-A2 (Clone BB7.2) (BD Bioscience Pharmingen-France-) at 4° C. for 45 min. After 3 washes, cells were fixed in PBS supplemented with 2% paraformaldehyde and analyzed by FACS (FACScan, BD Bioscience). The percentage of peptide binding was calculated as follows: % Binding={(MFI peptide sample−MFI Neg control)/(MFI Pos control−MFI Neg control)}×100
Negative control was done without peptide.

[4] = target: T2, HLA-A*0201; experiment: iScore calculation (iTOPIA system software); details: multiparametric score of binding, off-rate and affinity
[5] = target: T2, HLA-A*0201; experiment: iTOPIA EDS MHC peptide binding assay; details: HLA-A*0201 monomer, relative to positive control peptide, 21° C. for 18 h
From the text: MHC peptide binding assay using iTOPIA EDS
Microtiter 96 well plates containing HLA class I MHC monomer loaded with the human β2-microglobulin and a “placeholder” peptide were used to evaluate peptide binding, affinity, and off-rate.
The 502 nectin4 nonapeptides were first evaluated for their ability to bind to each MHC molecule in the peptide binding assay. In this assay, the placeholder peptides were stripped from the MHC class I monomer complexes coated on plastic, which leaves the MHC class I heavy chain available as a binding partner for candidate peptides in the presence of human β2-microglobulin.
Peptide binding was performed at 21° C. for 18 h. Revelation was done using an anti HLA-ABC-FITC mAb that binds to refolded MHC complex conformation. The relative fluorescent intensity was read using a fluorimeter (Molecular Devices, SpectraMax Gemini, Sunnyvale, Calif., USA).
Peptides with a binding>30% of the positive control peptide were selected as “binder” and subsequently analyzed for affinity (ED50) and off-rate (T1/2).

[6] = tested on: MDA-MB-231 breast carcinoma cell line; experiment: CTL cytotoxicity, 4 h 51Cr-release assay; type: cell-based, human; details: FIG. 4D
[7] = target: HLA-B*1501 (Homo sapiens, UniProt P01889, A329T/A93T/A95T/C349S/D201E/D98Y/E187L/E204Q/E69M/E70A/K202T/N87E/Q94N/R155S/R180W/S121R/S35A/S48A/V306I/V36M/Y140S/Y91S); experiment: iTOPIA EDS and […] analyses (FIG. 5B); type: binding; details: iTOPIA EDS and SYFPEITHI
Experimental: (§1) A library of 502 nonapeptides which span the entire 510 amino acid sequence of human nectin4, was synthesized (JPT Peptide Technologies GmbH, Berlin Germany). A series of 9 peptides described in the literature was selected and used as reference (Table 1). Peptides (purity >80%) were dissolved in DMSO at a concentration of 10 mM and stored at −20° C. Specific control peptides for each allele were supplied by the manufacturer of the iTOPIA Epitope Discovery System (EDS) (Beckman Coulter Inc., San Diego, Calif., USA). The 502 peptides were tested for binding to eight alleles (HLA-A*0101; HLA-A*0201; HLA-A*0301; HLA-A*1101; HLA-A*2402; […]; HLA-B*0801; HLA-B*1501) with the iTOPIA EDS.

[8] = target: T2, HLA-A*0201; experiment: iTOPIA EDS and […] analyses (FIG. 5B); type: binding; details: iTOPIA EDS and SYFPEITHI
Experimental: as §1

[9] = target: HLA-A*2402 (Homo sapiens, UniProt P04439, D101N/D140Y/D185E/E176V/E190D/F33S/G103R/G107R/I119L/I121M/I306V/K335N/L105A/L180Q/L300P/N151K/N90K/Q86E/Q94H/R106L/R138H/R89G/T104I/T345S/V100E/W191G/Y123F); experiment: iTOPIA EDS and […] analyses (FIG. 5B); type: binding; details: iTOPIA EDS and SYFPEITHI
Experimental: as §1

[10] = peptide concentration giving 50% of optimal binding, 10^−4 to 10^−9 M, 21° C. for 18 h, read-out: Affinity (ED50)

For `CC(C)C[C@H](NC(=O)[C@H](CC(C)C)NC(=O)[C@H](CC(C)C)NC(=O)[C@@H](N)CC(C)C)C(=O)N[C@@H](C)C(=O)N[C@@H](CO)C(=O)N[C@@H](Cc1ccccc1)C(=O)N[C@H](C(=O)NCC(=O)O)[C@@H](C)O` [Peptide 19] (H-LLLLASFTG-OH; N-terminus and C-terminus assumed), the “CEM.T2 % Residual Binding” value [1] was 0%, the EC50 [2, 10] was 60 nM and the “CEM.T2 % Binding” value [3] was 17%. The iScore [4] was 0.659 and the “% Binding” value [5] was 75%.

With `CC(C)C[C@H](NC(=O)[C@H](CS)NC(=O)[C@H](Cc1ccccc1)NC(=O)[C@H](CC(C)C)NC(=O)[C@@H](N)CC(C)C)C(=O)N[C@@H](CC(C)C)C(=O)N[C@H](C(=O)N[C@H](C(=O)N[C@H](C(=O)O)C(C)C)C(C)C)C(C)C` [Peptide 359] (H-LLFCLLVVV-OH; N-terminus and C-terminus assumed) the “CEM.T2 % Residual Binding” value [1] was 23%, the EC50 [2, 10] was 500 nM and the “CEM.T2 % Binding” value [3] was 7%. For the same compound, the iScore [4] was 0.674 and the “% Binding” value [5] was 67%.

In the case of `CSCC[C@H](NC(=O)[C@@H](N)CO)C(=O)N[C@@H](CC(N)=O)C(=O)NCC(=O)N[C@@H](CCC(N)=O)C(=O)N1CCC[C@H]1C(=O)N[C@@H](CC(C)C)C(=O)N[C@H](C(=O)N[C@@H](CS)C(=O)O)[C@@H](C)O` [Peptide 215] (H-SMNGQPLTC-OH; N-terminus and C-terminus assumed), the “CEM.T2 % Residual Binding” value [1] is reported as 0%, the EC50 [2, 10] is reported as 700 nM and the “CEM.T2 % Binding” value [3] is reported as 21%. The iScore [4] was 0.689 and the “% Binding” value [5] was 81%.

With `CC(C)C[C@H](NC(=O)[C@H](CO)NC(=O)[C@@H]1CCCN1C(=O)[C@H](CC(C)C)NC(=O)[C@@H]1CCCN1C(=O)[C@@H]1CCCN1C(=O)[C@@H](NC(=O)[C@H](CC(C)C)NC(=O)[C@@H](N)C(C)C)C(C)C)C(=O)O` [Peptide 145] (H-VLVPPLPSL-OH; N-terminus and C-terminus assumed) the “lysis by peptide-specific CTL of MDA-MB-231 cell line expressing nectin4” value ([6]; CTL isolated with HLA-A2/peptide tetramer, target not peptide loaded) was “able to kill the MDA-MB-231 cell line expressing nectin4”, the “lysis by peptide-specific CTL of wild-type MDA-MB-231 cells” value ([6]; nectin4 negative HLA-A*0201 target) was “not the wild-type MDA-MB-231 cells” and the EC50 ([2]; Affinity (ED50)) was 500 nM. The EC50 ([2]; estimated dose to reach 50% maximal binding (ED50)) was about 100 nM, the “HLA-A*0201 class I level on T2 cells” value ([3]; flow cytometry, FIG. 3A and 3B) was “increase the HLA-A*0201 class I level on T2 cells” and the “binder class for HLA-B*1501” value [7] was “strong binder”. The “binder class for HLA-A*0201” value [8] was “strong binder”, the “binder class for HLA-A*2402” value [9] was “strong binder” and the iScore [4] was 0.783. The “% Binding” value [5] was 67%.

In the case of `CC(C)C[C@H](NC(=O)[C@@H](N)Cc1ccccc1)C(=O)N[C@@H](C)C(=O)N[C@@H](CCC(=O)O)C(=O)N[C@@H](C)C(=O)N[C@@H](CO)C(=O)N[C@H](C(=O)N[C@@H](CCCNC(=N)N)C(=O)NCC(=O)O)C(C)C` [Peptide 244] (H-FLAEASVRG-OH; N-terminus and C-terminus assumed), the “CEM.T2 % Residual Binding” value [1] is reported as 0%, the EC50 [2, 10] is reported as 700 nM and the “CEM.T2 % Binding” value [3] is reported as 12%. The iScore [4] was 0.533 and the “% Binding” value [5] was 78%.

With `CC[C@H](C)[C@H](NC(=O)[C@@H](N)Cc1c[nH]cn1)C(=O)N[C@@H](CC(C)C)C(=O)N[C@@H](Cc1c[nH]cn1)C(=O)N[C@H](C(=O)N[C@@H](CO)C(=O)N[C@@H](Cc1ccccc1)C(=O)N[C@@H](CC(C)C)C(=O)N[C@@H](C)C(=O)O)C(C)C` [Peptide 238] (H-HILHVSFLA-OH; N-terminus and C-terminus assumed) the “CEM.T2 % Residual Binding” value [1] was 66%, the EC50 [2, 10] was 60 nM and the “CEM.T2 % Binding” value [3] was 37%. For the same compound, the iScore [4] was 1.426 and the “% Binding” value [5] was 87%.

In the case of `CC(C)[C@H](NC(=O)[C@@H](NC(=O)[C@@H](NC(=O)[C@@H](NC(=O)[C@@H](NC(=O)[C@H](CC(=O)O)NC(=O)[C@H](CO)NC(=O)[C@@H](NC(=O)CN)[C@@H](C)O)C(C)C)C(C)C)[C@@H](C)O)C(C)C)C(=O)O` [Peptide 35] (H-GTSDVVTVV-OH; N-terminus and C-terminus assumed), the “CEM.T2 % Residual Binding” value [1] is reported as 0%, the EC50 [2, 10] is reported as 300 nM and the “CEM.T2 % Binding” value [3] is reported as 60%. The iScore [4] was 0.539 and the “% Binding” value [5] was 63%.

In the case of `CC(C)C[C@H](NC(=O)[C@@H](NC(=O)[C@H](CO)NC(=O)[C@H](Cc1ccc(O)cc1)NC(=O)[C@H](CO)NC(=O)[C@@H](N)CCCNC(=N)N)[C@@H](C)O)C(=O)N[C@H](C(=O)N[C@H](C(=O)N[C@H](C(=O)O)C(C)C)[C@@H](C)O)[C@@H](C)O` [Peptide 443] (H-RSYSTLTTV-OH; N-terminus and C-terminus assumed), the “CEM.T2 % Residual Binding” value [1] is reported as 0%, the EC50 [2, 10] is reported as 300 nM and the “CEM.T2 % Binding” value [3] is reported as 37%. For the same compound, the iScore [4] was 0.521 and the “% Binding” value [5] was 68%.

Reference: US9266922B2, “Antigen peptide and uses thereof” (priority 2011, dated 2016)
